Drawing on patent publication US8957049B2, “Inhibitors of fatty acid amide hydrolase” (Infinity Pharmaceuticals, Inc., priority 2008, dated 2015), this text covers Ki for 70 compounds.

The target in the assay is T1, human FAAH (Homo sapiens, UniProt O00519).
T1 construct: host or cells: COS-7 cells, transient transfection (FuGENE 6); 13,000 g membrane fraction solubilised in 1% Triton X-100
T1 sequence (O00519 1-579): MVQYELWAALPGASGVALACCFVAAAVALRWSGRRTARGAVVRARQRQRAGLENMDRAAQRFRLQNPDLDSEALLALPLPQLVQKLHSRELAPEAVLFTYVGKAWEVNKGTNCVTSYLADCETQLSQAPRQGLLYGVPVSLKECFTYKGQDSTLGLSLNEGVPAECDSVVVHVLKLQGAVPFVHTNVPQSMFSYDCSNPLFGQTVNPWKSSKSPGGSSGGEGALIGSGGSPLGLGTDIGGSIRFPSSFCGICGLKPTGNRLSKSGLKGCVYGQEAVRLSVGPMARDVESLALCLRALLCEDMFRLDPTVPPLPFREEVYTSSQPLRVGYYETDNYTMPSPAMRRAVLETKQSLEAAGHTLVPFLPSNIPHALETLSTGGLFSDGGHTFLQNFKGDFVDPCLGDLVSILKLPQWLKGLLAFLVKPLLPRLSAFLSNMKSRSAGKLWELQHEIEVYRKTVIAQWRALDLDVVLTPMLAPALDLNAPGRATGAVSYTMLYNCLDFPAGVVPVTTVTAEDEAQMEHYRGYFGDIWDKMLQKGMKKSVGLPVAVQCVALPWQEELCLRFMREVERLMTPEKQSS
Briefly: Human FAAH biochemical inhibition assay (AMC arachidonoyl amide fluorescence). Particulars: class given in each Example, read-out: Activity (Ki, inhibition of human FAAH). The method, boiled down:
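Human FAAH from solubilized membranes of transiently transfected COS-7 cells, 0.1 mg/mL in 50 mM Hepes pH 7.5, 1 mM EDTA, 0.2% Triton X-100, preincubated 30 min at room temperature with 3-fold serially diluted inhibitor. Hydrolysis of AMC arachidonoyl amide read by fluorescence (ex 355/em 460 nm). Data fitted to single-site competitive inhibition with Km fixed at 9 μM.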

Molecules are shown by their SMILES.

On to `O=C(CCc1nc2ccc(B(O)O)cc2o1)N1CCCCC1` [Compound 247], for which the Ki was in the range of 10 to 100 nM. Turning to `O=C1CC(c2nc3ccc(B(O)O)cc3o2)CN1c1ccccc1` (stereo not shown) [Compound 248], the Ki was 10 to 100 nM.

On to `O=C1CC(c2nc3ccc(B(O)O)cc3o2)CN1Cc1ccccc1` (stereo not shown) [Compound 249], for which the Ki was in the range of 10 to 100 nM.

Take `OB(O)c1cc2oc(CCc3ccccc3)nc2cc1F` [Compound 253]: the Ki is at most 10 nM. For `OB1c2cc3c(cc2C=NN1Cc1ccccc1)OCO3` [Compound 254], the Ki was over 1000 nM. Turning to `COc1ccc2c(c1)B(O)N(Cc1ccccc1)N=C2` [Compound 255], the Ki was over 1000 nM. The result for `OB1c2sccc2C=NN1Cc1ccccc1` [Compound 256] reads over 1000 nM.

As for `OB1c2cscc2C=NN1Cc1ccccc1` [Compound 257], the Ki is over 1000 nM. On to `OB1NN=Cc2cc(OCc3ccccc3)ccc21` [Compound 258], for which the Ki was over 1000 nM. As to `OB(O)c1ccccc1-c1nc2ncccc2o1` [Compound 259], the Ki was over 1000 nM.

For the compound `CCCc1nnc(-c2cc(OC)ccc2B(O)O)o1` [Compound 260], the Ki is over 1000 nM. Consider `CCCc1nnc(-c2cc(F)ccc2B(O)O)o1` [Compound 261], for which the Ki was over 1000 nM. Consider `CCCc1nnc(-c2c(F)cccc2B(O)O)o1` [Compound 262], for which the Ki was over 1000 nM. Turning to `O=C1CCCN1CCc1nnc(-c2ccccc2B(O)O)o1` [Compound 263], the Ki is over 1000 nM.

For `OB(O)c1ccccc1-c1nnc(-c2ccco2)o1` [Compound 264], the Ki is over 1000 nM. As to `OB(O)c1ccccc1-c1nnc(CCc2ccccc2)o1` [Compound 265], the Ki is over 1000 nM. Turning to `CCCc1nnc(-c2ccccc2B(O)O)s1` [Compound 266], the Ki is over 1000 nM. As to `CCCc1nnc(-c2cc(OCCc3ccccc3)ccc2B(O)O)s1` [Compound 267], the Ki is at most 10 nM.

As to `Cn1cncc1-c1nnc(-c2cc(OCCc3ccccc3)ccc2B(O)O)o1` [Compound 268], the Ki lay within 10 to 100 nM.

Regarding `Cc1nc(-c2nnc(-c3cc(OCCc4ccccc4)ccc3B(O)O)o2)cs1` [Compound 269], the Ki was 100 to 1000 nM. For the compound `CCCCOc1ccc(B(O)O)c(-c2nnc(CCC)o2)c1` [Compound 271], the Ki lay in the range of 10 to 100 nM. For the compound `CCCCOc1ccc(B(O)O)c(-c2nnc(C)o2)c1` [Compound 272], the Ki was 10 to 100 nM.

Consider `CCCc1noc(-c2ccc(B(O)O)cc2)n1` [Compound 272], for which the inhibition constant Ki was at most 10 nM. Consider `CCCc1noc(-c2cc(OCCc3ccccc3)ccc2B(O)O)n1` [Compound 273], for which the Ki lay within 10 to 100 nM. As to `CCCc1cnc(-c2cc(OCCc3ccccc3)ccc2B(O)O)s1` [Compound 276], the Ki was in the range of 10 to 100 nM. With `CCCCOc1ccc2c(c1)C=NOB2O` [Compound 277], the Ki lay in the range of 100 to 1000 nM.

For the compound `OB(O)c1ccc2nc(CCc3ccccc3)sc2c1` [Compound 278], the Ki is at most 10 nM. As to `OB(O)c1ccc(C2CCN(Cc3ccccc3)CC2)cc1` [Compound 279], the Ki was in the range of 100 to 1000 nM.

`CC(C)c1ccc(CN2CCC(c3ccc(B(O)O)cc3)CC2)cc1` [Compound 280]: the Ki was 10 to 100 nM. Regarding `CCCCCc1nnc(-c2ccccc2B(O)O)o1` [Compound 281], the Ki was over 1000 nM. On to `CN(C)c1nnc(-c2ccccc2B(O)O)o1` [Compound 282], for which the Ki is over 1000 nM. The same measure for `CC(C)c1nnc(-c2ccccc2B(O)O)o1` [Compound 283]: over 1000 nM. As to `CC(C)Cc1nnc(-c2ccccc2B(O)O)o1` [Compound 284], the Ki was over 1000 nM. Take `OB(O)c1ccccc1-c1nnc(CCC(F)(F)F)o1` [Compound 285]: the Ki is over 1000 nM. With `CCOc1nnc(-c2ccccc2B(O)O)o1` [Compound 286], the Ki was over 1000 nM. Regarding `O=C(/C=C/c1cc(OCCc2ccccc2)ccc1B(O)O)NCc1cccnc1` [Compound 287], the Ki was over 1000 nM. As to `O=C(/C=C/c1cc(OCCc2ccccc2)ccc1B(O)O)NCc1ccco1` [Compound 288], the Ki was over 1000 nM. For `CC(C)c1cccc(-c2ccc(B(O)O)c(F)c2)c1` [Compound 289], the Ki is at most 10 nM. For the compound `OB(O)c1ccc2oc(CCc3ccccc3)cc2c1` [Compound 291], the Ki is at most 10 nM. The result for `OB(O)c1ccc2cc(CCc3ccccc3)oc2c1` [Compound 293] reads at most 10 nM. On to `CCCc1nnc(-c2cc(Oc3cccnc3)ccc2B(O)O)o1` [Compound 296], for which the Ki lay in the range of 10 to 100 nM.

As for `OB(O)c1ccc(Oc2cncc(F)c2)cc1` [Compound 297], the Ki is at most 10 nM.

For the compound `OB(O)c1ccc(Oc2ccc(F)nc2)cc1F` [Compound 298], the Ki is at most 10 nM. For the compound `CC(C)(C)OC(=O)N1CCC(Cc2nc3ccc(B(O)O)cc3o2)CC1` [Compound 299], the Ki is at most 10 nM. Take `CC(C)c1ccc(CN2CCC(Cc3nc4ccc(B(O)O)cc4o3)CC2)cc1` [Compound 301]: the Ki lay in the range of 10 to 100 nM. On to `OB(O)c1ccc2nc(CC3CCN(Cc4ccccc4)CC3)oc2c1` [Compound 302], for which the Ki was 10 to 100 nM. With `CCCN1CCC(Cc2nc3ccc(B(O)O)cc3o2)CC1` [Compound 303], the Ki was in the range of 100 to 1000 nM. With `CC(C)CN1CCC(Cc2nc3ccc(B(O)O)cc3o2)CC1` [Compound 304], the Ki was over 1000 nM. The result for `O=S(=O)(c1ccccc1)N1CCC(Cc2nc3ccc(B(O)O)cc3o2)CC1` [Compound 305] reads 10 to 100 nM; that for `O=C(CCc1ccccc1)N1CCC(Cc2nc3ccc(B(O)O)cc3o2)CC1` [Compound 306], at most 10 nM; that for `CCCCCN1C(=O)c2ccc(B(O)O)cc2C1=O` [Compound 307], at most 10 nM. Consider `O=C1c2ccc(B(O)O)cc2C(=O)N1Cc1ccccc1` [Compound 308], for which the Ki was at most 10 nM. As to `O=C1c2ccc(B(O)O)cc2C(=O)N1CCc1ccccc1` [Compound 309], the Ki is at most 10 nM. The same measure for `CN(CCc1ccc(B(O)O)c(F)c1)C(=O)OC(C)(C)C` [Compound 311]: at most 10 nM. For `CN(CCc1ccc(B(O)O)c(F)c1)S(=O)(=O)c1ccccc1` [Compound 312], the Ki was at most 10 nM. As to `OB(O)c1ccc2cn(CCc3ccccc3)nc2c1` [Compound 314], the Ki was at most 10 nM. The result for `OB(O)c1ccc2nn(CCc3ccccc3)cc2c1` [Compound 315] reads at most 10 nM; that for `OB(O)c1ccc2c(cnn2Cc2ccccc2)c1` [Compound 316], at most 10 nM. On to `OB(O)c1ccc2nc(-c3ccccc3)c(Br)n2c1` [Compound 317], for which the Ki was at most 10 nM. Consider `CC(C)(C)OC(=O)N1CCN(c2ccc(B(O)O)cc2)CC1` [Compound 318], for which the Ki was 10 to 100 nM. In the case of `O=C(c1ccccc1)c1ccc2cc(B(O)O)ccc2n1` [Compound 319], the Ki was at most 10 nM. The same measure for `O=C(CCB(O)O)NCCc1ccccc1` [Compound 321]: 100 to 1000 nM; for `O=C(CCB(O)O)N1CCN(C(=O)OCc2ccccc2)CC1` [Compound 322]: 10 to 100 nM. For `CC(C)(C)OC(=O)N1CCN(C(=O)CCB(O)O)CC1` [Compound 323], the Ki was 100 to 1000 nM. The same measure for `O=C(CCc1ccc(B(O)O)cc1)NCc1ccccc1` [Compound 324]: 100 to 1000 nM; for `OB(O)c1ccc(COc2ccc(B(O)O)cc2)cc1` [Compound 325]: 100 to 1000 nM.

With `OB(O)c1ccc(COc2cccc(B(O)O)c2)cc1` [Compound 326], the Ki was at most 10 nM. The same measure for `O=C(CCCC1CCN(Cc2ccc(B(O)O)cc2)CC1)c1ncco1` [Compound 329]: 100 to 1000 nM. `OB(O)c1ccc(-c2cn(Cc3ccccc3)nn2)cc1` [Example 117]: the Ki is at most 10 nM. Take `OB(O)c1ccc(Cn2cc(-c3ccccc3)nn2)cc1` [Example 122]: the Ki was in the range of 10 to 100 nM.
